# According to ChEMBL document CHEMBL4002603, “Structure-activity relationship study and discovery of indazole 3-carboxamides as calcium-release activated calcium channel blockers” (Bioorg Med Chem Lett, 2017):
# Active and inactive are the calls of the source. The rule behind the calls is not given here.
# Assays:
# Format in all cases: cell-based
# [1] = test system: RBL-2H3; experiment: Cytotoxicity against rat RBL2H3 mast cells at 100 uM by CCK8 cell viability assay; settings: rbl-2h3, 100 µM
# [2] = organism: Rattus norvegicus; experiment: Inhibition of thapsigargin activated calcium-release activated channel in rat RBL2H3 mast cells assessed as decrease in calcium influx at 100 uM by Fluo-4NW calcium assay
# [3] = Inhibition of thapsigargin activated calcium-release activated channel in rat RBL2H3 mast cells assessed as decrease in calcium influx by Fluo-4NW calcium assay
# [4] = organism: Rattus norvegicus; experiment: Inhibition of thapsigargin activated calcium-release activated channel in rat RBL2H3 mast cells assessed as decrease in calcium influx at 30 uM by Fluo-4NW calcium assay
# [5] = organism: Rattus norvegicus; experiment: Inhibition of thapsigargin activated calcium-release activated channel in rat RBL2H3 mast cells assessed as decrease in calcium influx at 10 to 100 uM by Fluo-4NW calcium assay
# [6] = (§1) Inhibition of thapsigargin activated calcium-release activated channel in rat RBL2H3 mast cells assessed as decrease in TNFalpha secretion measured 4 hrs after extracellular calcium exposure by ELISA; settings: RBL-2H3, 4 h
# [7] = organism: Rattus norvegicus; experiment: as §1
# [8] = (§2) Inhibition of thapsigargin activated calcium-release activated channel in rat RBL2H3 mast cells assessed as decrease in release of beta-hexosaminidase preincubated for 30 mins followed by extracellular calcium addition by ELISA method; settings: RBL-2H3
# [9] = organism: Rattus norvegicus; experiment: as §2
# [10] = (§3) Inhibition of thapsigargin activated calcium-release activated channel in rat RBL2H3 mast cells assessed as decrease in nuclear translocation of NFAT-c1 measured 30 mins after extracellular calcium exposure by ELISA; settings: RBL-2H3, 0.5 h
# [11] = organism: Rattus norvegicus; experiment: as §3
# [12] = Rattus norvegicus, RBL-2H3, read-out: IC50
SMILES,Activity [1],"IC50 [3, 12]",further results
O=C(Nc1nn(Cc2ccc(Cl)cc2Cl)c2ccccc12)c1cc(F)nc(F)c1,Non-Toxic,–,inhibition [2]: < 50%
Cc1cc(C(=O)Nc2nn(Cc3ccc(Cl)cc3Cl)c3ccccc23)ccn1,Non-Toxic,> 30 µM,inhibition [4]: 44 to 48%
Cc1cc(NC(=O)c2nn(Cc3ccc(Cl)cc3Cl)c3ccccc23)ccn1,Non-Toxic,–,inhibition [2]: < 50%
O=C(Nc1ccnc(F)c1)c1nn(Cc2ccc(Cl)cc2Cl)c2c1CCCC2,Non-Toxic,1.53 µM,–
O=C(Nc1nn(Cc2ccc(Cl)cc2Cl)c2ccccc12)c1c(F)cccc1F,Non-Toxic,–,inhibition [2]: < 50%
O=C(Nc1cc(F)nc(F)c1)c1nn(Cc2ccc(Cl)cc2Cl)c2c1CCCCC2,Non-Toxic,12.8 µM,–
O=C(Nc1ccc(F)cc1F)c1nn(Cc2ccc(Cl)cc2Cl)c2ccccc12,Non-Toxic,2.33 µM,inhibition [5]: Active
O=C(Nc1ccccc1F)c1nn(Cc2ccc(Cl)cc2Cl)c2ccccc12,Non-Toxic,> 30 µM,IC50 [6]: 0.28 µM; inhibition [7]: Dose-dependent effect; inhibition [4]: 44 to 48%
Cc1cc(NC(=O)c2nn(Cc3ccc(Cl)cc3Cl)c3c2CCC3)ccn1,Non-Toxic,> 30 µM,–
O=C(Nc1cc(F)nc(F)c1)c1nn(Cc2ccc(Cl)cc2Cl)c2c1CCCC2,Non-Toxic,1.34 µM,–
O=C(Nc1nn(Cc2ccc(Cl)cc2Cl)c2ccccc12)c1ccc(F)cc1F,Non-Toxic,–,inhibition [2]: < 50%
Cc1cc(NC(=O)c2nn(Cc3ccc(Cl)cc3Cl)c3c2CCCC3)ccn1,Non-Toxic,–,IC50 [3]: Nd(Insoluble)
O=C(Nc1c(F)cccc1Cl)c1nn(Cc2ccc(Cl)cc2Cl)c2ccccc12,Non-Toxic,3.23 µM,inhibition [5]: Active; IC50 [6]: 0.74 µM; inhibition [7]: Dose-dependent effect
O=C(Nc1cc(F)nc(F)c1)c1nn(Cc2ccc(Cl)cc2Cl)c2c1CCC2,Non-Toxic,0.65 µM,–
O=C(Nc1cnns1)c1nn(Cc2ccc(Cl)cc2Cl)c2ccccc12,Non-Toxic,–,inhibition [2]: < 50%
O=C(Nc1ccnc(F)c1)c1nn(Cc2ccc(Cl)cc2Cl)c2ccccc12,Non-Toxic,0.67 µM,inhibition [5]: Active; EC50 [8]: 0.86 µM; inhibition [9]: Dose-dependent effect; inhibition [7]: Dose-dependent effect; IC50 [10]: 1.6 µM; inhibition [11]: Dose-dependent effect
O=C(Nc1ccnc(F)c1)c1nn(Cc2ccc(Cl)cc2Cl)c2c1CCCCC2,Non-Toxic,–,IC50 [3]: Nd(Insoluble)
O=C(Nc1nn(Cc2ccc(Cl)cc2Cl)c2ccccc12)c1ccccc1F,Non-Toxic,29 µM,inhibition [5]: Active
Cc1cc(NC(=O)c2nn(Cc3ccc(Cl)cc3Cl)c3c2CCCCC3)ccn1,Non-Toxic,> 30 µM,–
O=C(Nc1nn(Cc2ccc(Cl)cc2Cl)c2ccccc12)c1ccnc(F)c1,Non-Toxic,–,inhibition [2]: < 50%
O=C(Nc1c(F)cccc1F)c1nn(Cc2ccc(Cl)cc2Cl)c2ccccc12,Non-Toxic,1.51 µM,inhibition [5]: Active; IC50 [6]: 0.47 µM; inhibition [7]: Dose-dependent effect
O=C(Nc1ccnc(F)c1)c1nn(Cc2ccc(Cl)cc2Cl)c2c1CCC2,Non-Toxic,0.99 µM,–
O=C(Nc1cc(F)nc(F)c1)c1nn(Cc2ccc(Cl)cc2Cl)c2ccccc12,Non-Toxic,> 30 µM,inhibition [4]: 46%
Cc1nnsc1C(=O)Nc1nn(Cc2ccc(Cl)cc2Cl)c2ccccc12,Non-Toxic,> 30 µM,inhibition [4]: 44 to 48%
